Read-outs that look alike come from different tables or passages of the source.
Test system: Sprague-Dawley rats, glomerular changes
Format: in vivo, rat
Conditions: for effect of treatment on loss of Heparan Sulfate Proteoglycan side-chain staining (mAb JM-403): rats injected with Amadori-RSA or AGE-RSA (both cases); for microalbuminuria / albuminuria: rats receiving Amadori-RSA or AGE-RSA
Description: Male Sprague-Dawley rats (Sasco, 100 g) were used. After a 1 week adaptation period, rats were placed in metabolic cages to obtain a 24 hour urine specimen for 2 days before administration of injections. Rats were then divided into experimental and control groups and given tail vein injections with either saline, unmodified RSA (50 mg/kg), Amadori-RSA (50 mg/kg), NaBH4-reduced Amadori-RSA (50 mg/kg), or AGE-RSA (50 mg/kg).
Rats injected with Amadori-RSA and AGE-RSA were then either left untreated, or further treated by the administration of either aminoguanidine (AG; 25 mg/kg), pyridoxamine (PM; 25 mg/kg), or a combination of AG and PM (10 mg/kg each) through the drinking water. Body weight and water intake of the rats were monitored weekly in order to adjust dosages. At the conclusion of the experimental study the rats were placed in metabolic cages to obtain 24 hour urine specimen for 2 days prior to sacrificing the animals.
After perfusion with saline, kidney sections were fixed in ice-cold 10% neutral buffered formalin. Paraffin-embedded tissue sections from all rat groups (n=4 per group) were processed for staining with Harris' alum hematoxylin and eosin (H&E), perodic acid/Schiff reagent (PAS), and alcian blue (pH 1.0 and pH 2.5) stains for histological examination. The alcian blue sections were scored by two investigators in a blinded fashion.
Parrafin-embedded sections were deparaffinized and then blocked with 10% goat serum in PBS for 30 min at room temperature. […] The sections were then rinsed for 30 min with PBS in the dark, mounted in aqueous mounting media for immunocytochemistry (Biomeda), and cover slipped. Sections were scored in a blinded fashion. Kidney sections were evaluated by the number and intensity of glomerular staining in 5 regions around the periphery of the kidney. Scores were normalized for the immunofluorescent score per 100 glomeruli with a scoring system of 0-3.
All animals studies were carried out in conformance with institutional guidelines for animal research protocols. Male Sprague-Dawley 100 g rats (Sasco Co., Omaha Nebr.) were used in these studies. After a 1 week adaptation period, rats were placed in metabolic cages for 2 days to get two 24 hour urine specimens before starting treatment. Rats were then given daily single tail vein injections for 6 weeks according to the following treatment groups: saline, unmodified RSA (50 mg/kg), Amadori-RSA (50 mg/kg), NaBH4-reduced Amadori-RSA (50 mg/kg), and AGE-RSA (50 mg/kg). Groups of rats injected with Amadori-RSA or AGE-RSA were also administered aminoguanidine (25 mg/kg/day), pyridoxamine (25 mg/kg/day), a combination of the two (10 mg/kg/day each), or with nothing added to the drinking water. Body weight and water intake of the rat were monitored weekly in order to adjust dosages. At the conclusion of the study, the rats were placed in metabolic cages for two days to get two 24 hour urine specimens before sacrificing the animals.
Total protein in urine was determined by Bio-Rad assay. Albumin in urine was determined by competitive ELISA using rabbit anti-rat serum albumin (Cappell) as primary antibody (1:2000) and goat anti-rabbit IgG (Sigma) as a secondary antibody (1:2000). Urine was tested with Multistix 8 SG (Miles) for glucose, ketone, specific gravity, blood, pH, protein, nitrite and leukocytes. Creatinine measurements were performed with a Beckman creatinine analyzer II. Intracardiac blood samples were collected before termination and were used in the determination of creatinine clearance, blood glucose (glucose oxidase, Sigma), fructosamine (nitroblue tetrazolium, Sigma), and glycated Hb (Glycotest II analytical boronate columns, Pierce).
After perfusion with saline, kidney sections were fixed in ice-cold 10% neutral buffered formalin. […]

[1] = 6 weeks, n = 4, average with standard error
[2] = Amadori-RSA injected rats, 6 weeks
[3] = rats injected with Amadori-RSA or AGE-RSA

SMILES	Alcian Blue pH 1.0, scoring of glomerular staining (sulfated glycosaminoglycans) [1]	Alcian Blue pH 2.5, scoring of glomerular staining (acidic glycosaminoglycans) [1]	HS core protein (Ab BL-31), scoring of glomerular staining [1]	effect of treatment on glomerular albumin cross-linking (AGE-RSA injected rats)	effect of treatment on glomerular volume (GV) (AGE-RSA injected rats, 6 weeks)	effect of treatment on glomerular albumin cross-linking (Amadori-RSA injected rats)	effect of treatment on glomerular volume (GV) [2]	Creat C-2wk (creatinine clearance at 2 weeks, n = 4)	Creat C-6wk (creatinine clearance at 6 weeks, n = 4)	effect of treatment on elevated glomerular staining for RSA [3]	effect of treatment on increase in average glomerular volume [3]	effect of treatment on reduced Heparan Sulfate Proteoglycan Core protein staining [3]	effect of treatment on loss of Heparan Sulfate Proteoglycan side-chain staining (mAb JM-403)	effect of treatment on loss of Heparan Sulfate Proteoglycan side-chain staining (mAb JM-403) (listed as PM)	microalbuminuria / albuminuria (6 weeks)	microalbuminuria / albuminuria (6 weeks, listed as PM)	effect of treatment on HS loss (Amadori-RSA injected rats)
Cc1ncc(CO)c(CN)c1O [pyridoxamine]	2.62 ± 0.24	1.56 ± 0.21	234 ± 8	completely blocked	completely prevented	significantly lower cross-linking than Aminoguanidine	no significant changes from controls	0.66 ± 0.07 ml/(min*100g)	0.66 ± 0.17 ml/(min*100g)	Significant reduction of this effect	A significant reduction of this effect	A reduction of this effect	completely prevented this loss	A significant reduction of this effect	very low intra-group scatter and to the lowest means	none was seen if PM was co-administered	
N=C(N)NN [aminoguanidine, reference compound]				intermediate results but did not lead to statistically significant differences from either the controls or from the untreated subgroup	significant elevation in GV persisted		No statistically significant differences			not with AG	No effect						appeared to not prevent this loss

— patent US6716858B1, “Methods for inhibiting diabetic complications” (Kansas University Medical Center, priority 1995, dated 2004)
